Laboratory results published in patent US20020052361A1, “Pharmaceutical compositions and method for the treatment of hypertension” (priority 1999, published 2002).

How the values were obtained:
Type in all cases: in vivo, Sprague-Dawley rats
chronically hypoxic rats [1] = experiment: Measurement of the antihypertrophic effect: right and left ventricular weights; conditions: for Rt/LtHWt (ratio of right to left ventricular weight) / RtHWt (right ventricular weight) / RtHWt/BW (ratio of right ventricular weight to body weight): rats, 40 mg/kg/day for 14 days, mean ± SD
Description: (§1) The test substance employed was (3S,2R′)-3-[1-(2′-(carboxy-4′-phenylbutyl)cyclopentane-1-carbonylamino]-2,3,4,5-tetrahydro-2-oxo-1H-1-benzazepine-1-acetic acid, which is representative of the substances of formula I which can be used in the invention. The dose of the substance administered was 40 mg/kg per day (sufficient to suppress the pressure feedback on big endothelin).
(§2) The test animals used were Sprague-Dawley rats (260 to 310 g; n=6 to 10 per test group). In order to produce pulmonary hypertension, the animals were exposed to […] hypoxic conditions in a pressure chamber. For comparison, one control group was kept under normal air and another control group under hypoxic conditions.
(§3) The animals were treated with the active substance or a vehicle by means of osmotic mini-pumps. The osmotic mini-pumps had been implanted intraperitoneally in the animals before they were kept in a pressure chamber 24 h later for a period of two weeks. There the animals were kept at normal pressure either under hypoxic conditions (10% O2) or in normal air. After two weeks the animals were prepared for the haemodynamic tests and the measurements were carried out.
After completion of the haemodynamic tests, the animals were sacrificed and their hearts were dissected out. The weights of the right and left ventricles were determined and calculated in relation to bodyweight. The effects of the test substance on the heart weights under normotoxic and hypoxic conditions are presented in Table 1 in comparison with the control tests. The given data are means±standard deviations and were statistically analysed by means of ANOVA.

chronically hypoxic rats [2] = experiment: Haemodynamic tests: systemic blood pressure via carotid artery cannula; conditions: 40 mg/kg per day, result in words
Description: as §1, §2
The animals were treated with the active substance or a vehicle by means of osmotic mini-pumps. […]
The animals were anaesthetised, then a ready-made cannula was inserted into the pulmonary artery in a conventional manner via the right jugular vein, atrium and ventricle. […] Once the animals were conscious, pulmonary artery pressure (PAP) was recorded. The rats were then exposed to hypoxic conditions (10% O2) again for 10 minutes in a mini-chamber and the increase in pulmonary artery pressure was measured and also recorded. […] The given data are means±standard deviations and were statistically analysed by means of ANOVA.

chronically hypoxic rats [3] = experiment: Haemodynamic tests: pulmonary artery pressure in rats kept 14 days under normoxic or hypoxic conditions; conditions: for PAP (pulmonary artery pressure): rats, 40 mg/kg/day for 14 days via i.p. osmotic mini-pump, mean ± SD
Description: as §1, §2, §3
The animals were anaesthetised, then a ready-made cannula was inserted into the pulmonary artery in a conventional manner via the right jugular vein, atrium and ventricle. A catheter was inserted into the left jugular vein in order to allow intravenous administration of active substances. The left carotid artery was also fitted with a cannula for the purpose of measuring systemic blood pressure. Once the animals were conscious, pulmonary artery pressure (PAP) was recorded. The rats were then exposed to hypoxic conditions (10% O2) again for 10 minutes in a mini-chamber and the increase in pulmonary artery pressure was measured and also recorded. The effects of the test substance on PAP under normotoxic and hypoxic conditions are presented in Table 1 in comparison with the control tests. The given data are means±standard deviations and were statistically analysed by means of ANOVA.

chronically hypoxic rats [4] = experiment: Effect on pulmonary artery remodelling: muscularisation of distal pulmonary vessels (histology, van Gieson staining)
Description: as §1, §2, §3
After the rats had been sacrificed, the lungs as well as the hearts were isolated. The lungs underwent histological examination, i.e. the degree of muscularisation of the distal pulmonary vessels was determined after “van Gieson” staining, by microscopy at 400× magnification. The effects of the test substance on pulmonary artery remodelling (i.e. on muscularisation of the distal pulmonary vessels) during two weeks' hypoxia are presented in Table 2 in comparison with the hypoxic control tests. The given data are means±standard deviations and were statistically analysed by means of ANOVA.

[5] = hypoxic rats, 40 mg/kg per day, result in words
[6] = rats, 14 days' hypoxia, 40 mg/kg/day for 14 days, mean ± SD, n = 8

## O=C(O)CN1C(=O)[C@@H](NC(=O)C2(C[C@@H](CCc3ccccc3)C(=O)O)CCCC2)CCc2ccccc21 [Test substance]
Chronically hypoxic rats [1]; [5]
  Effect on ratio between right and left ventricular weights: tendency towards a reduction
  Effect on ratio between right heart weight and bodyweight: tendency towards a reduction
  Effect on right heart weight (antihypertrophic effect) in comparison with hypoxic control tests: statistically significant reduction
Chronically hypoxic rats [1]; 14-day hypoxia (10% O2), n=9
  Rt/LtHWt (ratio of right to left ventricular weight): 0.40 ± 0.02 mg/mg
  RtHWt (right ventricular weight): 242 ± 6.4 mg
  RtHWt/BW (ratio of right ventricular weight to body weight): 0.87 ± 0.03 mg/g
Chronically hypoxic rats [1]; 14-day normoxia, n = 8
  Rt/LtHWt (ratio of right to left ventricular weight): 0.25 ± 0.01 mg/mg
  RtHWt (right ventricular weight): 171 ± 10 mg
  RtHWt/BW (ratio of right ventricular weight to body weight): 0.56 ± 0.03 mg/g
Chronically hypoxic rats [2]
  Effect on normal systemic blood pressure (hypotensive properties): unaffected
Chronically hypoxic rats [3]; [5]
  Effect on pulmonary artery pressure (PAP) in comparison with hypoxic control animals: statistically significant decrease
Chronically hypoxic rats [3]; 14-day hypoxia (10% O2), n=9
  PAP (pulmonary artery pressure): 33.2 ± 1.2 mmHg
Chronically hypoxic rats [3]; 14-day normoxia, n = 8
  PAP (pulmonary artery pressure): 22.2 ± 1 mmHg
Chronically hypoxic rats [4]; [5]
  Effect on muscularisation of the distal pulmonary vessels: statistically significantly reduced
Chronically hypoxic rats [4]; [6]
  Muscularised distal pulmonary vessels: 52 ± 5 %
  Non-muscularised distal pulmonary vessels: 9 ± 3%
  Partly muscularised distal pulmonary vessels: 39 ± 4 %
